21 compounds from patent US11155557B2, “Pyrazolopyrimidine compounds and methods of use thereof” (Genentech, Inc., priority 2016, dated 2021) can be followed below.

pIC50, pKi: −log10 of the molar value. Where two headings read alike, the source gives them in different places.

The pIC50 is the negative decadic logarithm of the IC50, by convention in mol/L. Broadly, the pKi is −log10 of the Ki, conventionally taken in molar units.

Assay [1] has as its system JAK1-dependent STAT6 phosphorylation in BEAS-2B human bronchial epithelial cells. Kind of assay: JAK1 pathway assay: IL-13 stimulated STAT6 phosphorylation in BEAS-2B cells. The format is cell-based. The settings on record: Homo sapiens, BEAS-2B, read-out: IL-13 p-STAT6 BEAS-2B IC50. In short, it runs like this:
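BEAS-2B bronchial epithelial cells plated one day before, run in complete growth medium. Phospho-STAT6 in lysates measured by MesoScale Discovery; EC50 reported.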

Assay [2] concerns the target isolated recombinant JAK1 kinase domain (Homo sapiens (Human), UniProt P23458). Briefly: JAK1 enzyme assay (Caliper LabChip, Ki). The assay is classed as biochemical. Here is the method:
The activity of the isolated recombinant JAK1 and JAK2 kinase domain was measured by monitoring phosphorylation of a peptide derived from JAK3 ([…] fluorescently labeled on the N-terminus with 5-carboxyfluorescein) using the Caliper LabChip R technology (Caliper Life Sciences, Hopkinton, Mass.).

The target in assay [3] is isolated recombinant JAK2 kinase domain (Homo sapiens (Human), UniProt O60674). Kind of assay: JAK2 enzyme assay (Caliper LabChip, Ki).
Protocol: JAK Enzyme Assays were Carried Out as Follows:
The activity of the isolated recombinant JAK1 and JAK2 kinase domain was measured by monitoring phosphorylation of a peptide derived from JAK3 ([sequence] fluorescently labeled on the N-terminus with 5-carboxyfluorescein) using the Caliper LabChip R technology (Caliper Life Sciences, Hopkinton, Mass.). […] After termination of the kinase reaction, the proportion of phosphorylated product was determined as a fraction of total peptide substrate using the Caliper LabChip R 3000 according to the manufacturer's specifications.
[4] abbreviates: BEAS-2B cells, IL-13 stimulation.

Sequence of isolated recombinant JAK2 kinase domain (O60674 849-1124): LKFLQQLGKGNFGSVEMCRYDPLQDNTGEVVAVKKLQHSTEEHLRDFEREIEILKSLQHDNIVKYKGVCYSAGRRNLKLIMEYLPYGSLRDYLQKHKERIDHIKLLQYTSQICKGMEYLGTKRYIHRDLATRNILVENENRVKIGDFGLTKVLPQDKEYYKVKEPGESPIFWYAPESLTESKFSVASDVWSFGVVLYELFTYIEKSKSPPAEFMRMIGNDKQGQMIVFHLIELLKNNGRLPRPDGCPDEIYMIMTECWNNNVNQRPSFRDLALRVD
Sequence of isolated recombinant JAK1 kinase domain (P23458 875-1153): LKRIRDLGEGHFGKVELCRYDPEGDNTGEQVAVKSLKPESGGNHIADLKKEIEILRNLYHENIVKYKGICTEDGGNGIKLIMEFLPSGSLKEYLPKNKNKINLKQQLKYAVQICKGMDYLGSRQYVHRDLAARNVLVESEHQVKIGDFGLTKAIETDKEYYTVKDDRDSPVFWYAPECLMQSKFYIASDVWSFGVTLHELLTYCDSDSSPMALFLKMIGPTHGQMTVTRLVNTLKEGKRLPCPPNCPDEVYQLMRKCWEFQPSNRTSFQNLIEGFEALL

With `NC(=O)c1cc2cc(OC(F)F)c(-c3nn(CC(=O)N4CCC(CN5CCOCC5)CC4)cc3NC(=O)c3cnn4cccnc34)cc2s1` [Example 61, N-[3-[2-carbamoyl-5-(difluoromethoxy)benzothiophen-6-yl]-1-[2-[4-(morpholinomethyl)-1-piperidyl]-2-oxo-ethyl]pyrazol-4-yl]pyrazolo[1,5-a]pyrimidine-3-carboxamide], the negative logarithm of the IC50 (pIC50) in assay [1] (setting [4]) is less than 6.48. The results for the pKi in assay [2] and in assay [3] (read-out: JAK2 Ki) were 9.19 and 9.11, respectively.

Regarding `NC(=O)c1cc2cc(OC(F)F)c(-c3nn(CC(=O)N4CCC(=O)CC4)cc3NC(=O)c3cnn4cccnc34)cc2s1` [Example 62, N-[3-[2-carbamoyl-5-(difluoromethoxy)benzothiophen-6-yl]-1-[2-oxo-2-(4-oxo-1-piperidyl)ethyl]pyrazol-4-yl]pyrazolo[1,5-a]pyrimidine-3-carboxamide], in assay [1], the negative-log IC50 (pIC50) was less than 6.48. In addition, the pKi was 9.42 in assay [2] and 9.62 in assay [3] (read-out: JAK2 Ki).

As for `CN(CCC#N)C1CCN(C(=O)Cn2cc(NC(=O)c3cnn4cccnc34)c(-c3cc4ccccc4cc3OC(F)F)n2)CC1` [Example 63, N-[1-[2-[4-[2-cyanoethyl(methyl)amino]-1-piperidyl]-2-oxo-ethyl]-3-[3-(difluoromethoxy)-2-naphthyl]pyrazol-4-yl]pyrazolo[1,5-a]pyrimidine-3-carboxamide], the pIC50 in assay [1] (setting [4]) is 7.85. Besides, the negative-log Ki (pKi) is 9.40 in assay [2] and 9.24 in assay [3] (read-out: JAK2 Ki).

Take `N#CC1(CNC2CCN(C(=O)Cn3cc(NC(=O)c4cnn5cccnc45)c(-c4cc5sc(C(N)=O)cc5cc4OC(F)F)n3)CC2)CC1` [Example 64, N-[3-[2-carbamoyl-5-(difluoromethoxy)benzothiophen-6-yl]-1-[2-[4-[(1-cyanocyclopropyl)methylamino]-1-piperidyl]-2-oxo-ethyl]pyrazol-4-yl]pyrazolo[1,5-a]pyrimidine-3-carboxamide]: the pIC50 in assay [1] (setting [4]) is less than 6.00. Also, the pKi is 9.54 in assay [2] and 9.46 in assay [3] (read-out: JAK2 Ki).

Take `O=C(Nc1cn(CC(=O)N2CCC(CN3CCOCC3)CC2)nc1-c1cc2sccc2cc1OC(F)F)c1cnn2cccnc12` [Example 65, N-[3-[5-(difluoromethoxy)benzothiophen-6-yl]-1-[2-[4-(morpholinomethyl)-1-piperidyl]-2-oxo-ethyl]pyrazol-4-yl]pyrazolo[1,5-a]pyrimidine-3-carboxamide]: the pIC50 in assay [1] (setting [4]) is 7.89. Besides, the negative logarithm of the Ki (pKi) in assay [2] is 9.39; in assay [3] (read-out: JAK2 Ki), 9.22.

As to `O=C(Nc1cn(CC(=O)N2CCC(N3CCOCC3)CC2)nc1-c1cc2sccc2cc1OC(F)F)c1cnn2cccnc12` [Example 66, N-[3-[5-(difluoromethoxy)benzothiophen-6-yl]-1-[2-(4-morpholino-1-piperidyl)-2-oxo-ethyl]pyrazol-4-yl]pyrazolo[1,5-a]pyrimidine-3-carboxamide], the pIC50 in assay [1] (setting [4]) was 7.68. Besides, the results for the negative-log Ki (pKi) in assay [2] and in assay [3] (read-out: JAK2 Ki) were 9.52 and 9.31, respectively.

For `CCN1CCN(C(=O)Cn2cc(NC(=O)c3cnn4cccnc34)c(-c3cc4ccccc4cc3OC(F)F)n2)CC1` [Example 67, N-[3-[3-(difluoromethoxy)-2-naphthyl]-1-[2-(4-ethylpiperazin-1-yl)-2-oxo-ethyl]pyrazol-4-yl]pyrazolo[1,5-a]pyrimidine-3-carboxamide], the negative logarithm of the IC50 (pIC50) in assay [1] (setting [4]) was 7.28. The pKi in assay [2] is 8.68; in assay [3], 8.39.

Regarding `O=CN1CCN(C(=O)Cn2cc(NC(=O)c3cnn4cccnc34)c(-c3cc4ccccc4cc3OC(F)F)n2)CC1` [Example 68, N-[3-[3-(difluoromethoxy)-2-naphthyl]-1-[2-(4-formylpiperazin-1-yl)-2-oxo-ethyl]pyrazol-4-yl]pyrazolo[1,5-a]pyrimidine-3-carboxamide], in assay [1] (setting [4]), the negative logarithm of the IC50 (pIC50) was 7.46. In addition, the pKi in assay [2] is 9.06; in assay [3], 8.79.

As to `CN(C)C(=O)CN1CCN(C(=O)Cn2cc(NC(=O)c3cnn4cccnc34)c(-c3cc4ccccc4cc3OC(F)F)n2)CC1` [Example 69, N-[3-[3-(difluoromethoxy)-2-naphthyl]-1-[2-[4-[2-(dimethylamino)-2-oxo-ethyl]piperazin-1-yl]-2-oxo-ethyl]pyrazol-4-yl]pyrazolo[1,5-a]pyrimidine-3-carboxamide], the pIC50 in assay [1] (setting [4]) was 6.82. For the same compound, the pKi in assay [2] was 9.36; in assay [3] (read-out: JAK2 Ki), 9.03.

In the case of `CC(C)(C)OC(=O)N1CCN(C(=O)Cn2cc(NC(=O)c3cnn4cccnc34)c(-c3cc4ccccc4cc3OC(F)F)n2)CC1` [Example 70, tert-butyl 4-[2-[3-[3-(difluoromethoxy)-2-naphthyl]-4-(pyrazolo[1,5-a]pyrimidine-3-carbonylamino)pyrazol-1-yl]acetyl]piperazine-1-carboxylate], the pIC50 in assay [1] (setting [4]) is 7.60. For the same compound, the pKi in assay [2] is 9.46; in assay [3] (read-out: JAK2 Ki) it was 8.94.

With `O=C(Nc1cn(CC(=O)N2CCNCC2)nc1-c1cc2ccccc2cc1OC(F)F)c1cnn2cccnc12` [Example 71, N-[3-[3-(difluoromethoxy)-2-naphthyl]-1-(2-oxo-2-piperazin-1-yl-ethyl)pyrazol-4-yl]pyrazolo[1,5-a]pyrimidine-3-carboxamide], the pIC50 in assay [1] (setting [4]) was 7.11. Also, the values for the pKi in assay [2] and in assay [3] (read-out: JAK2 Ki) were 9.07 and 8.80, respectively.

As to `CN1CCC[C@@H]1Cn1cc(NC(=O)c2cnn3cccnc23)c(-c2cc3c(cc2OC(F)F)NCCS3)n1` [Example 72, N-[3-[6-(difluoromethoxy)-3,4-dihydro-2H-1,4-benzothiazin-7-yl]-1-[[(2R)-1-methylpyrrolidin-2-yl]methyl]pyrazol-4-yl]pyrazolo[1,5-a]pyrimidine-3-carboxamide], the pIC50 in assay [1] (setting [4]) was 8.00. In addition, the negative-log Ki (pKi) in assay [2] and in assay [3] (read-out: JAK2 Ki) was 9.66 in each case.

Turning to `CN1CCC[C@@H]1Cn1cc(NC(=O)c2cnn3cccnc23)c(-c2cc3c(cc2OC(F)F)NC(=O)CS3)n1` [Example 73, N-[3-[6-(difluoromethoxy)-3-oxo-4H-1,4-benzothiazin-7-yl]-1-[[(2R)-1-methylpyrrolidin-2-yl]methyl]pyrazol-4-yl]pyrazolo[1,5-a]pyrimidine-3-carboxamide], the negative-log IC50 (pIC50) in assay [1] (setting [4]) was 8.05. For the same compound, the negative-log Ki (pKi) in assay [2] is 9.70; in assay [3] (read-out: JAK2 Ki), 9.72.

In the case of `CN1CCC[C@H]1Cn1cc(NC(=O)c2cnn3cccnc23)c(-c2cc3cn[nH]c3cc2OC(F)F)n1` [Example 76, N-[3-[6-(difluoromethoxy)-1H-indazol-5-yl]-1-[[(2S)-1-methylpyrrolidin-2-yl]methyl]pyrazol-4-yl]pyrazolo[1,5-a]pyrimidine-3-carboxamide], the pIC50 in assay [1] (setting [4]) was 7.77. The pKi in assay [2] is 9.32; in assay [3] (read-out: JAK2 Ki), 9.28.

In the case of `CN1CCC[C@@H]1Cn1cc(NC(=O)c2cnn3cccnc23)c(-c2cc3cn[nH]c3cc2OC(F)F)n1` [Example 77, N-[3-[6-(difluoromethoxy)-1H-indazol-5-yl]-1-[[(2R)-1-methylpyrrolidin-2-yl]methyl]pyrazol-4-yl]pyrazolo[1,5-a]pyrimidine-3-carboxamide], the pIC50 in assay [1] (setting [4]) was 8.05. The pKi in assay [2] was 9.55; in assay [3] (read-out: JAK2 Ki), 9.37.

Consider `O=C(Nc1cn(CCN[C@@H]2CCOC2)nc1-c1cc2c(cc1OC(F)F)NCCS2)c1cnn2cccnc12` [Example 78, N-[3-[6-(difluoromethoxy)-3,4-dihydro-2H-1,4-benzothiazin-7-yl]-1-[2-[[(3R)-tetrahydrofuran-3-yl]amino]ethyl]pyrazol-4-yl]pyrazolo[1,5-a]pyrimidine-3-carboxamide], for which, in assay [1] (setting [4]), the pIC50 was 7.89. The figures for the pKi in assay [2] and in assay [3] (read-out: JAK2 Ki) were 9.72 and 10.00, respectively.

Turning to `CNCCn1cc(NC(=O)c2cnn3cccnc23)c(-c2cc3c(cc2OC(F)F)NC(=O)CS3)n1` [Example 79, N-[3-[6-(difluoromethoxy)-3-oxo-4H-1,4-benzothiazin-7-yl]-1-[2-(methylamino)ethyl]pyrazol-4-yl]pyrazolo[1,5-a]pyrimidine-3-carboxamide], the pIC50 in assay [1] (setting [4]) was 7.01. The figures for the pKi in assay [2] and in assay [3] (read-out: JAK2 Ki) were 9.74 and 9.89, respectively.

On to `CNCCn1cc(NC(=O)c2cnn3cccnc23)c(-c2cc3c(cc2OC(F)F)NCCS3)n1` [Example 81, N-[3-[6-(difluoromethoxy)-3,4-dihydro-2H-1,4-benzothiazin-7-yl]-1-[2-(methylamino)ethyl]pyrazol-4-yl]pyrazolo[1,5-a]pyrimidine-3-carboxamide], for which the pIC50 in assay [1] (setting [4]) is 8.15. In addition, the negative-log Ki (pKi) in assay [2] was 9.92; in assay [3] (read-out: JAK2 Ki), 9.96.

`CN(C)CCn1cc(NC(=O)c2cnn3cccnc23)c(-c2cc3c(cc2OC(F)F)NCCS3)n1` [Example 82, N-[3-[6-(difluoromethoxy)-3,4-dihydro-2H-1,4-benzothiazin-7-yl]-1-[2-(dimethylamino)ethyl]pyrazol-4-yl]pyrazolo[1,5-a]pyrimidine-3-carboxamide]: in assay [1] (setting [4]), the negative-log IC50 (pIC50) was 8.15. In addition, the negative-log Ki (pKi) in assay [2] was 9.64; in assay [3] (read-out: JAK2 Ki) it was 9.80.

For the compound `CN(C)CCn1cc(NC(=O)c2cnn3cccnc23)c(-c2cc3c(cc2OC(F)F)NC(=O)CS3)n1` [Example 83, N-[3-[6-(difluoromethoxy)-3-oxo-4H-1,4-benzothiazin-7-yl]-1-[2-(dimethylamino)ethyl]pyrazol-4-yl]pyrazolo[1,5-a]pyrimidine-3-carboxamide], the pIC50 in assay [1] (setting [4]) is 7.85. In addition, the pKi was 9.64 in assay [2] and 9.85 in assay [3] (read-out: JAK2 Ki).

Take `O=C(Nc1cn(C2COC2)nc1-c1cc2c(cc1OC(F)F)NCCO2)c1cnn2cccnc12` [Example 84, N-[3-[6-(difluoromethoxy)-3,4-dihydro-2H-1,4-benzoxazin-7-yl]-1-(oxetan-3-yl)pyrazol-4-yl]pyrazolo[1,5-a]pyrimidine-3-carboxamide]: in assay [1] (setting [4]), the negative-log IC50 (pIC50) was 8.10. Further, the pKi in assay [2] was 9.72; in assay [3] (read-out: JAK2 Ki), 9.92.
